Measured values as given in the SangsterLogP compilation.
Each block holds one molecule with its values, some of them ahead of it.

Key:
[1] = method code SF, from DOI: 10.1021/jm020367+, PMID: 12502371
[2] = method code SF-AS, from DOI: 10.1093/ajhp/38.9.1308, PMID: 7282713
[3] = method code SF, from DOI: 10.1002/jps.2600641111, PMID: 1195110; details: pH 7.4
[4] = method code SF-RC,FL, from DOI: 10.1016/0006-2952(81)90006-x, PMID: 6456004
[5] = method code SF-GLC, from DOI: 10.1039/an9709500763, PMID: 5449617
[6] = not given; remark: listed apart in the source
[7] = method code SF-GLC, from DOI: 10.1016/s0022-3565(25)30310-1, PMID: 1181405; details: pH 7.4
[8] = method code SF-AS, from Halmekoski, J.; Hannikainen, H. (1964). Rm values of hydroxy-substituted benzoic acids and partition coefficients of the acids between water and aliphatic alcohols. Suomen Kemist. B, 37, 221-226.
[9] = method code SF-HPLC, from DOI: 10.1016/s0021-9673(01)81976-2, PMID: 4066822
[10] = not given; remark: listed apart in the source
[11] = method code SF-CR, from DOI: 10.1042/bj1780443, PMID: 109087; details: pH 7.4
[12] = method code SF-AS,RC, from DOI: 10.2307/3575891, PMID: 7122830
[13] = method code SF-GLC, from DOI: 10.1016/0378-4274(82)90116-3, PMID: 7090003
[14] = not given; remark: listed apart in the source
[15] = method code SF-HPLC, from PMID: 3268116; details: pH 7.0
[16] = method code SF-LC/MS, from DOI: 10.1002/rcm.3594, PMID: 18543375; details: pH 7.4
[17] = method code SF-RC, from DOI: 10.1038/sj.bjc.6601862, PMID: 15150578
[18] = method code SF-AS, from DOI: 10.1021/es00082a014; details: pH 7.0
[19] = method code SF-HPLC, from DOI: 10.1021/jf0623440, PMID: 17263479
[20] = method code SF-HPLC, from PMID: 11745753; details: pH 7.4
[21] = method code SF-HPLC, from DOI: 10.1021/je900271h
[22] = not given; remark: listed apart in the source
[23] = method code SF-ESR, from DOI: 10.1111/1523-1747.ep12319780, PMID: 2551971; details: pH 7.0
[24] = method code SF-AS, from DOI: 10.1248/cpb.28.85; details: pH 2.0
[25] = method code SF-AS, from DOI: 10.1016/0009-2797(77)90097-7, PMID: 407012; details: pH 7.0
[26] = method code SF-HPLC, from Hairsine, P. (1997). Direct measurement of partition coefficient by shake flask technique and gradient elution HPLC. Lab. Practice, 38(11)73-75.
[27] = method code SF-HPLC, from DOI: 10.1002/ps.2780370106; details: pH 0.0
[28] = not given; remark: listed apart in the source
[29] = method code SF-AS, from DOI: 10.1111/j.2042-7158.1981.tb11766.x; details: pH 1.0
[30] = method code SF-AS, from DOI: 10.1148/radiology.194.3.7862981, PMID: 7862981
[31] = not given; remark: listed apart in the source
[32] = method code SF, from DOI: 10.1038/248065a0, PMID: 4150456; details: pH 9.0
[33] = method code SF, from DOI: 10.1002/jbm.820150603, PMID: 7309762
[34] = method code SF, from DOI: 10.1080/09553009014551091, PMID: 1970998; details: pH 7.4
[35] = not given; remark: listed apart in the source
[36] = method code SF-AS, from DOI: 10.1016/0378-5173(80)90117-9
[37] = method code SF-AS, from DOI: 10.1248/cpb.26.2824
[38] = method code SF-RC, from Audran, M.; Chanal, J.; Marignan, R.; Cousse, H. (1984). Correlations between structure and pharmacokinetic parameters in a series of cresotinamides. International Journal of Pharmaceutics, …; details: pH 1.0
[39] = method code SF-AS, from DOI: 10.1016/s0022-3565(25)24763-2, PMID: 2019981; details: pH 7.4
[40] = not given; remark: listed apart in the source
[41] = not given; remark: listed apart in the source
[42] = method code …, from Buur, A., & Bundgaard, H. (1984). Prodrugs of 5-fluorouracil. II. Hydrolysis kinetics, bioactivation, solubility and lipophilicity of N-alkoxycarbonyl derivatives of 5-fluorouracil. Arch. Pharm. …; details: pH 4.0
[43] = method code SF-AS, from DOI: 10.1016/j.ejmech.2004.01.002, PMID: 15072846; details: pH 7.4
[44] = method code SF-AS, from DOI: 10.2116/analsci.8.761; details: pH 6.0
[45] = method code SF-GLC, from PMID: 6629728; details: pH 7.4
[46] = method code SF-HPLC, from DOI: 10.1002/jps.2600750520, PMID: 3735094; details: pH 4.0
[47] = not given; remark: listed apart in the source
[48] = method code SF-AS, from DOI: 10.1007/s0012800114, PMID: 10885996
[49] = method code SF-AS, from DOI: 10.1016/j.jhazmat.2007.11.074, PMID: 18180104

Structure (SMILES): Nc1n[n+]([O-])c2cc(Cl)ccc2[n+]1[O-]
- logP [1]: 0.46

Structure (SMILES): COP(=S)(OC)Oc1cc(Cl)c(Cl)cc1Cl
- logP: 4.67

Structure (SMILES): NCCc1ccc(O)c(O)c1
- logP [4]: -0.97

Structure (SMILES): COP(=O)(OC)Oc1ccc([N+](=O)[O-])cc1
- logP [5]: 1.33

Structure (SMILES): COC(=O)c1nc(Cl)c(Cl)c(N)c1Cl
- logP [6]: 2.3

Structure (SMILES): CCCCCOC(=O)NC
- logD [7]: 1.96

Structure (SMILES): O=NN(CCF)C(=O)NC1CCS(=O)(=O)CC1
- logP [10]: -0.41

Structure (SMILES): C=C(C)C(=O)OC(C)C
- logP [13]: 2.25

Structure (SMILES): C1=CC=CCC=C1
- logP [14]: 2.63

Structure (SMILES): c1ccc2[nH]ccc2c1
- logD [15]: 2.27

Structure (SMILES): c1ccc2[nH]cnc2c1
- logD [16]: 1.53

Structure (SMILES): O=C(Cn1ccnc1[N+](=O)[O-])NCCF
- logP [17]: -0.8

Structure (SMILES): Cc1ccc(N)cc1C
- logD [18]: 1.86

Structure (SMILES): O=[N+]([O-])/C=C1/NCCN1Cc1cnc(Cl)s1
- logP [19]: 0.03

Structure (SMILES): CC1(C)CCC(C)(C)N1[O]
- logD [23]: 1

Structure (SMILES): O=C(O)COc1ccccc1
- logD [24]: 1.35

Structure (SMILES): CN(C)c1nc(N(C)C)nc(N(C)O)n1
- logD [25]: 1.61

Structure (SMILES): COc1ccccc1C(=O)O
- logP [26]: 1.62

Structure (SMILES): O=[N+]([O-])c1nccn1C[C@H](O)[C@H](O)CF
- logP [30]: -0.77

Structure (SMILES): CNC(=S)NCCSCc1c[nH]cn1
- logD [32]: 0.16

Structure (SMILES): C=C(C)C(=O)OCCCC
- logP [33]: 2.6

Structure (SMILES): Cc1ccc([N+](=O)[O-])cc1N
- logP [40]: 1.87

Structure (SMILES): CC(C)OC(C)(C)C
- logP [41]: 2.14

Structure (SMILES): C1CCC(C2CO2)CC1 (stereo not given)
- logD [45]: 2.43

Structure (SMILES): CCCCCCCBr
- logP [47]: 4.44

Further lines, results first:

- logP [2]: 1
Structure (SMILES): NNc1nncc2ccccc12

- logD [3]: 0.3
Structure (SMILES): CC(=O)OCCn1c([N+](=O)[O-])cnc1C

- logP [8]: 1.12
Structure (SMILES): O=C(O)c1cc(O)ccc1O

- logP [9]: 0.34
Structure (SMILES): COC1=C(OC)C(=O)C=CC1=O

- logD [11]: 2.4
Structure (SMILES): CCc1ccc(O)cc1

- logP [12]: 0.46
Structure (SMILES): COCC(O)Cn1cc(Br)nc1[N+](=O)[O-] (stereo not given)

- logD [20]: 1.48
Structure (SMILES): COC(=O)c1ccc(N)cc1

- logP [21]: 1.46
Structure (SMILES): COc1cc(C(=O)O)ccc1O

- logP [22]: 0.37
Structure (SMILES): Cc1ncc(COP(=O)(O)O)c(C=O)c1O

- logD [27]: 0.73
Structure (SMILES): NC(=O)Nc1ccc(C(=O)O)cc1

- logP [28]: 1.9
Structure (SMILES): O=C(O)c1ccc([N+](=O)[O-])cc1

- logD [29]: 1.56
Structure (SMILES): O=C(O)c1ccc(O)cc1

- logP [31]: 2.38
Structure (SMILES): COc1ccc([N+](=O)[O-])c(C)c1

- logD [34]: -0.52
Structure (SMILES): O=C(NCCO)C(F)(F)Cn1ccnc1[N+](=O)[O-]

- logP [35]: -1.15
Structure (SMILES): O=[N+]([O-])c1nccn1[C@@H]1O[C@H](CO)[C@@H](O)[C@H]1O

- logP [36]: 1.95
Structure (SMILES): CCOc1ccc(O)cc1

- logP [37]: 2.78
Structure (SMILES): Cc1ccc(O)c(C(=O)O)c1

- logD [38]: 2.12
Structure (SMILES): Cc1cccc(C(N)=O)c1O

- logD [39]: 0.6
Structure (SMILES): CCc1occc(=O)c1O

- logD [42]: 0.11
Structure (SMILES): CCOC(=O)n1c(=O)[nH]cc(F)c1=O

- logD [43]: 0.97
Structure (SMILES): NC(=O)N/N=C/C=C/c1ccc([N+](=O)[O-])o1

- logD [44]: 0.48
Structure (SMILES): OCc1ccc(O)cc1

- logD [46]: 0.02
Structure (SMILES): O=C(OCCCl)n1cc(F)c(=O)[nH]c1=O

- logP [48]: 0.35
Structure (SMILES): CS(=O)(=O)c1ccc(C=O)cc1

- logP [49]: 1.98
Structure (SMILES): CNc1ccc([N+](=O)[O-])cc1
